Experimental data from patent US10787423B2, “Piperazine and piperidine derivatives, their synthesis and use thereof in inhibiting VDAC oligomerization, apoptosis and mitochondria dysfunction” (THE NATIONAL INSTITUTE FOR BIOTECHNOLOGY IN THE NEGEV LTD., priority 2015, dated 2020).

Assays:
HeLa cells = experiment: Selenite-induced cell death in HeLa cells, PI staining and flow cytometry; format: cell-based; settings: 22 h with selenite 8 μM and increasing concentrations
Experimental: Cells, e.g. HeLa cells (2×10^5), untreated or treated with apoptosis-inducing reagents, were analyzed for apoptotic cell death using PI, annexin V-FITC and flow cytometer analysis. Cells were collected (1500×g for 10 min), washed, and resuspended in 200 μl binding buffer (10 mM HEPES/NaOH, pH 7.4, 140 mM NaCl, and 2.5 mM CaCl2). Annexin V-FITC was added according to the recommended Protocol (Enzo Life Sciences, Switzerland), and the cells were incubated in the dark for 15 min. Cells were then washed with binding buffer and resuspended in 200 μl binding buffer, to which PI was added immediately before flow cytometry analysis. At least 10,000 events were collected, recorded on a dot plot, and analyzed by the FACSCalibur™ flow cytometer software (BD Biosciences, Franklin Lakes, N.J.).
HeLa cells were incubated with varying concentrations (2-20 μM) of racemic compound of Formula 1 (VBIT-4) and of the enantiomers of compound of Formula 1 (VBIT-4-1 and VBIT-4-2) for 1 hour, and then with or without selenite (25 μM, 3 hours). Cells were harvested and assayed for apoptotic cell death, using PI staining and FACS analysis. The results shown in the FIG. 14b correspond to means±SD (n=3).
Cells (2.5 mg/ml) were washed with and resuspended in PBS, pH 8.3 and incubated with membrane-permeable cross-linker EGS (250 μM) at 30° C. for 15 min and then subjected to SDS-PAGE and immunoblotting using anti-VDAC1 antibodies. Several anti-VDAC1 antibody-labeled protein bands were obtained upon exposure to the apoptosis stimuli that are correspond to VDAC1 dimers, trimers, tetramers and multimers. Cell death as induced by selenite and inhibited by the compound of Formula 3 (VBIT-12) or compound of Formula 11 (DIV00781) is shown (FIG. 21B), with closed circles corresponding to the compound of Formula 3 and open circles corresponding to the compound of Formula 11. Cell death was analyzed using propidium iodide (PI) staining and flow cytometry.

[1] = molecular target: T1, rVDAC1-GFP2 / rVDAC1-Rluc in T-REx-293 cells (Rattus norvegicus, UniProt Q9Z2L0); experiment: BRET2 assay of VDAC1 oligomerization induced by apoptosis inducers (Method A); format: cell-based; settings: test compound 10 μM, 1 h pre-incubation; for BRET2, % of inhibition, As2O3: As2O3 60 μM (3 h); for BRET2, % of inhibition, STS: STS 1 μM (3 h); for BRET2, % of inhibition, Selenite: selenite 30 μM (3 h)
T1 construct: The rVDAC1 gene was cloned into BamHI and HindIII sites of the BRET2 plasmids (N2 variants); expressed in transfected cells; host or cells: T-REx-293 cells stably expressing hVDAC1-shRNA (T-REx-pS10)
From the text: BRET2 screening may be carried out as described in the art ([…] et al., (2010) Oligomerization of the mitochondrial protein voltage-dependent anion channel is coupled to the induction of apoptosis. Mol Cell Biol 30, 5698-5709). Plasmids encoding the fusion proteins rat(r)VDAC1-GFP2 and rVDAC1-luc were constructed using the BRET2 plasmids (Perkin Elmer, Waltham, Mass.). The rVDAC1 gene was cloned into BamHI and HindIII sites of the BRET2 plasmids (N2 variants) and amplified using the forward primer [NT] and the reverse primer [NT]. […] The cells were transfected using calcium phosphate method. Transfections were carried out with 0.2 μg of a plasmid coding for rVDAC1-Rluc and with 0.8 μg of a plasmid coding for rVDAC1-GFP2. As a negative control, cells were transfected with plasmids encoding for rVDAC1-Rluc (0.2 μg DNA) and GFP2 (0.8 μg). In another control (control cells), cells were also transfected with a plasmid encoding for rVDAC1-luc (0.2 μg) and plasmid pcDNA4/TO (0.8 μg). The BRET2 signal represents the ratio of the GFP2 fluorescence, measured at its emission wavelength (510 nm), over the light intensity (luminescence) emitted at 395 nm. All measurements were performed using the Infinite 200 ELISA reader (Tecan). BRET2 signals were defined as GFP2/Rluc intensity ratio and calculated as follows: DNA encoding fusion proteins rVDAC1-Rluc (in which RLuc was connected to rVDAC1 at the C terminal position through a linker (GGGS)) and rVDAC1-GFP2 (in which the GFP2 was fused to the rVDAC1 C terminus) was cloned into BRET2 vectors. rVDAC1-GFP2 and rVDAC1-Rluc were expressed in T-REx-293 cells stably expressing shRNA-hVDAC1 and a low level of endogenous hVDAC1 (referred to as T-REx-pS10 cells) hVDAC1-shRNA, being specific to human VDAC1, allowed the expression of rVDAC1 and decreased the participation of endogenous hVDAC1 in oligomerization, thereby enhancing the BRET2 signal. rVDAC1-GFP2 and rVDAC1-Rluc expression levels were correlated with the amount of plasmids used. […] Following incubation, cells were harvested using trypsin, washed twice with PBS by centrifugation at 1000×g, 5 min, resuspended in 200 μl of PBS and divided between two wells of a 96-well clear-bottom plate (Grenier). […] The screening was conducted using BRET2 assay as described above. […] After treatment, the medium was removed and assayed for BRET2 signals as described above. Liquid handling was done with the Tecan (Männedorf, Switzerland) Freedom 150 Robotic & MCA Liquid Handling System, while luciferase luminescence and fluorescence readings were obtained a robot-integrated Tecan Infinite M1000 reader. Method A was used for screening of VDAC1 oligomerization inhibitors. […] Table 2 provides a summary of BRET2-based screen results of the anti-VDAC1 oligomerization activity of compounds from the NCI library. Results are presented as percent inhibition of the BRET2 signal induced by the indicated pro-apoptotic agent.

T1 sequence (Q9Z2L0 with tags, fused parts or gaps limits assumed): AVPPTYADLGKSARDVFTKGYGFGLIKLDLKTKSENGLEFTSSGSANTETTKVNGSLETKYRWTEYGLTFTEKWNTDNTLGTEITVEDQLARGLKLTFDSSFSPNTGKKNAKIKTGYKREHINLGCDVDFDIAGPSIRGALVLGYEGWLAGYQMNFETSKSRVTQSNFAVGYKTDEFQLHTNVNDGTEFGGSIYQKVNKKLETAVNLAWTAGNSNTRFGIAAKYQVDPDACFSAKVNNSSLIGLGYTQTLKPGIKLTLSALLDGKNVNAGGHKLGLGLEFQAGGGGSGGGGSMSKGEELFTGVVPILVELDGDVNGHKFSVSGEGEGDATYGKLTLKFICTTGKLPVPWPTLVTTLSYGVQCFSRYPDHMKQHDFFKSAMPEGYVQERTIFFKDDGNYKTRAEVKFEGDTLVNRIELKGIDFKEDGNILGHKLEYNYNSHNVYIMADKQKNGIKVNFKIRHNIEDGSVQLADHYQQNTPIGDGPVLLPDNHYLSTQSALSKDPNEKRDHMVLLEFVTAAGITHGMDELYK

With `O=C(O)CN1CN(c2ccccc2)C2(CCN(Cc3cccc4ccccc34)CC2)C1=O` [Formula 11] the “cell death as induced by selenite” value (HeLa cells) was “inhibited”.

With `COC(=O)C1(C)Cc2cc(OC(C)=O)c(OC(C)=O)cc2N1` (stereo not shown) [NSC 341956] the “BRET2, % of inhibition, As2O3” value [1] was 51.5%, the “BRET2, % of inhibition, STS” value [1] was 0% and the “BRET2, % of inhibition, Selenite” value [1] was 24%.

In the case of `CCOc1cccc(/C=C2\NC(=S)N(c3ccccc3)C2=O)c1O` [NSC 343966], the “BRET2, % of inhibition, As2O3” value [1] is reported as 39.4%, the “BRET2, % of inhibition, STS” value [1] is reported as 0% and the “BRET2, % of inhibition, Selenite” value [1] is reported as 20.1%.

`COc1ccc(C2OC3=C(Nc4cc(C)c(C)cc4N3)C2=O)cc1` (stereo not shown) [NSC 372275] was tested, and the “BRET2, % of inhibition, As2O3” value [1] was 72.5%, the “BRET2, % of inhibition, STS” value [1] was 28.5% and the “BRET2, % of inhibition, Selenite” value [1] was 46.5%.

With `O=[N+]([O-])c1ccc(-c2ncc(-c3ccc(Br)cc3)o2)cc1` [NSC 372767] the “BRET2, % of inhibition, As2O3” value [1] was 77.3%, the “BRET2, % of inhibition, STS” value [1] was 0% and the “BRET2, % of inhibition, Selenite” value [1] was 26.6%.

With `C=CCNC(=O)c1ccc(OC)cc1` [NSC 404057] the “BRET2, % of inhibition, As2O3” value [1] was 74.6%, the “BRET2, % of inhibition, STS” value [1] was 0% and the “BRET2, % of inhibition, Selenite” value [1] was 37.1%.

For `O=C(Nc1ccc(Cl)c(Cl)c1)Nc1ccccc1O` [NSC 522131], the “BRET2, % of inhibition, As2O3” value [1] was 86.8%, the “BRET2, % of inhibition, STS” value [1] was 0% and the “BRET2, % of inhibition, Selenite” value [1] was 47.6%.

With `O=C(Nc1ccc(Br)c2ccccc12)c1ccc2ccccc2c1O` [NSC 601359] the “BRET2, % of inhibition, As2O3” value [1] was 97.7%, the “BRET2, % of inhibition, STS” value [1] was 46% and the “BRET2, % of inhibition, Selenite” value [1] was 74.4%.

`c1ccc2c(c1)[nH]c1c3ccccc3sc21` [NSC 605333] was tested, and the “BRET2, % of inhibition, As2O3” value [1] was 63.7%, the “BRET2, % of inhibition, STS” value [1] was 0% and the “BRET2, % of inhibition, Selenite” value [1] was 16%.

For `CC(=O)N1C=Cc2c(c(C)c3c([nH]c4ccccc43)c2C)C1` [NSC 657149], the “BRET2, % of inhibition, As2O3” value [1] was 88.3%, the “BRET2, % of inhibition, STS” value [1] was 0% and the “BRET2, % of inhibition, Selenite” value [1] was 25.3%.

In the case of `CN(C)c1cccc(/C=C(\C#N)c2ccccc2)c1` [NSC 667251], the “BRET2, % of inhibition, As2O3” value [1] is reported as 77.5%, the “BRET2, % of inhibition, STS” value [1] is reported as 1.4% and the “BRET2, % of inhibition, Selenite” value [1] is reported as 0%.

In the case of `COC(=NC(C)C)NC(C)C` [NSC 672441], the “BRET2, % of inhibition, As2O3” value [1] is reported as 69.6%, the “BRET2, % of inhibition, STS” value [1] is reported as 0% and the “BRET2, % of inhibition, Selenite” value [1] is reported as 41.8%.

For `CN(C)c1ccc(N=Nc2cccc3ccoc23)cc1` [NSC 680515], the “BRET2, % of inhibition, As2O3” value [1] was 87.8%, the “BRET2, % of inhibition, STS” value [1] was 33.4% and the “BRET2, % of inhibition, Selenite” value [1] was 66.3%.
